These molecules were tested against T1, human glucocorticoid receptor (GR) complex (Homo sapiens, UniProt P04150) (assay: Glucocorticoid receptor competitive binding assay (fluorescence polarization)). Conditions: competition with TAMRA-labeled dexamethasone.
T1 construct: made in house; host or cells: insect expression system (baculovirus lysate)
T1 sequence (P04150 1-777): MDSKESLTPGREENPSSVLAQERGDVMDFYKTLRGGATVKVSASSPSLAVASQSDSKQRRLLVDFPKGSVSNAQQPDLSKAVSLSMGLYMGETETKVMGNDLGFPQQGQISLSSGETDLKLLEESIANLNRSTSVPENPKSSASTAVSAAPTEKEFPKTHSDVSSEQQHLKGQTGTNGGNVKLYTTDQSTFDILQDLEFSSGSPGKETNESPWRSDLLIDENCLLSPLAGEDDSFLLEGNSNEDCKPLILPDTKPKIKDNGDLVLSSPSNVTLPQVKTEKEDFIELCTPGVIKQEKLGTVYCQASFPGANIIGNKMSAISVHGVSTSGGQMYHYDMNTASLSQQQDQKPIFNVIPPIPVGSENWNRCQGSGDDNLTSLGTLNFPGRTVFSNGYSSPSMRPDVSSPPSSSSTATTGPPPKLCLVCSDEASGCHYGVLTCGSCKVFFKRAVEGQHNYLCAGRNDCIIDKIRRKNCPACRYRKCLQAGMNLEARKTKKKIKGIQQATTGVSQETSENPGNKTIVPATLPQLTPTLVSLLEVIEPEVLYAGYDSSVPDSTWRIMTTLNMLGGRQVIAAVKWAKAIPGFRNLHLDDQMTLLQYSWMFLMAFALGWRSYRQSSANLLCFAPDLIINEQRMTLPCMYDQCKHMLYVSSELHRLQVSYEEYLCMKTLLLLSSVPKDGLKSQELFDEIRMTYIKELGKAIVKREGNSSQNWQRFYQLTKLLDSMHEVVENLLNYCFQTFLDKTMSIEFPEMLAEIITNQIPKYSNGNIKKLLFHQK
Experimental: Compounds of the invention were evaluated for binding to the steroid receptor by a fluorescence polarization competitive binding assay.
A. Glucocorticoid Receptor Competitive Binding Assay
Step 1. Characterization of the Fluorescent Probe
The wavelengths for maximum excitation and emission of the fluorescent probe should first be measured. An example of such a probe is rhodamine (TAMRA)-labeled dexamethasone.
The affinity of the probe for the steroid receptor was then determined in a titration experiment. The fluorescence polarization value of the probe in assay buffer was measured on an SLM-8100 fluorometer using the excitation and emission maximum values described above. Aliquots of expression vector lysate were added and fluorescence polarization was measured after each addition until no further change in polarization value was observed. Non-linear least squares regression analysis was used to calculate the dissociation constant of the probe from the polarization values obtained for lysate binding to the probe.
Step 2. Screening for Inhibitors of Probe Binding
This assay uses fluorescence polarization (FP) to quantitate the ability of test compounds to compete with tetramethyl rhodamine (TAMRA)-labeled dexamethasone for binding to a human glucocorticoid receptor (GR) complex prepared from an insect expression system. The assay buffer was: 10 mM TES, 50 mM KCl, 20 mM Na2MoO4.2H20, 1.5 mM EDTA, 0.04% w/v CHAPS, 10% v/v glycerol, 1 mM dithiothreitol, pH 7.4. Test compounds were dissolved to 1 mM in neat DMSO and then further diluted to 10× assay concentration in assay buffer supplemented with 10% v/v DMSO. Test compounds were serially diluted at 10× assay concentrations in 10% DMSO-containing buffer in 96-well polypropylene plates. Binding reaction mixtures were prepared in 96-well black Dynex microtiter plates by sequential addition of the following assay components to each well: 15 μL of 10× test compound solution, 85 μL of GR-containing baculovirus lysate diluted 1:170 in assay buffer, and 50 μL of 15 nM TAMRA-labeled dexamethasone. Positive controls were reaction mixtures containing no test compound; negative controls (blanks) were reaction mixtures containing 0.7 μM to 2 μM dexamethasone. […] IC50 values were determined by iterative non-linear curve fitting of the FP signal data to a 4-parameter logistic equation.
For Cc1ccc(O)c(C(C)(C)CC(O)(Cn2ccc(=O)c3ccccc32)C(F)(F)F)c1 (stereo not shown) [1-[2-Hydroxy-4-(2-hydroxy-5-methylphenyl)-4-methyl-2-trifluoromethylpentyl]-1H-quinolin-4-one], the “activity in the GR binding assay” value was “potent activity”.
CC(C)(CC(O)(Cn1ccc(=O)c2ccccc21)C(F)(F)F)c1cc(CN2CCOCC2)ccc1O (stereo not shown) [1-[2-Hydroxy-4-(2-hydroxy-5-morpholin-4-ylmethylphenyl)-4-methyl-2-trifluoromethylpentyl]-1H-quinolin-4-one] was tested, and the “activity in the GR binding assay” value was “potent activity”.
With CC(C)(CC(O)(Cn1ccc(=O)c2ccccc21)C(F)(F)F)c1cc(-c2cccnc2)ccc1O (stereo not shown) [1-[2-Hydroxy-4-(2-hydroxy-5-pyridin-3-ylphenyl)-4-methyl-2-trifluoromethylpentyl]-1H-quinolin-4-one] the “activity in the GR binding assay” value was “potent activity”.
With CC(C)(CC(O)(Cn1ccc(=O)c2ccccc21)C(F)(F)F)c1cc(-c2ccsc2)ccc1O (stereo not shown) [1-[2-Hydroxy-4-(2-hydroxy-5-thiophen-3-ylphenyl)-4-methyl-2-trifluoromethylpentyl]-1H-quinolin-4-one] the “activity in the GR binding assay” value was “potent activity”.
COc1ccc(C)cc1C(C)(C)CC(O)(Cn1ccc(=O)c2ccccc21)C(F)(F)F (stereo not shown) [1-[2-Hydroxy-4-(2-methoxy-5-methylphenyl)-4-methyl-2-trifluoromethylpentyl]-1H-quinolin-4-one] was tested, and the “activity in the GR binding assay” value was “potent activity”.
COc1ccc(CN2CCOCC2)cc1C(C)(C)CC(O)(Cn1ccc(=O)c2ccccc21)C(F)(F)F (stereo not shown) [1-[2-Hydroxy-4-(2-methoxy-5-morpholin-4-ylmethylphenyl)-4-methyl-2-trifluoromethylpentyl]-1H-quinolin-4-one] was tested, and the “activity in the GR binding assay” value was “potent activity”.
COc1ccc(-c2cccs2)cc1C(C)(C)CC(O)(Cn1ccc(=O)c2ccccc21)C(F)(F)F (stereo not shown) [1-[2-Hydroxy-4-(2-methoxy-5-thiophen-2-ylphenyl)-4-methyl-2-trifluoromethylpentyl]-1H-quinolin-4-one] was tested, and the “activity in the GR binding assay” value was “potent activity”.
In the case of CC(C)(CC(O)(Cn1ccc(=O)c2ccccc21)C(F)(F)F)c1cccc(O)c1 (stereo not shown) [1-[2-Hydroxy-4-(3-hydroxyphenyl)-4-methyl-2-trifluoromethylpentyl]-1H-quinolin-4-one], the “activity in the GR binding assay” value is reported as “potent activity”.
In the case of COc1cccc(C(C)(C)CC(O)(Cn2ccc(=O)c3ccccc32)C(F)(F)F)c1 (stereo not shown) [1-[2-Hydroxy-4-(3-methoxyphenyl)-4-methyl-2-trifluoromethylpentyl]-1H-quinolin-4-one], the “activity in the GR binding assay” value is reported as “potent activity”.
In the case of CC(C)(CC(O)(Cn1ccc(=O)c2ccccc21)C(F)(F)F)c1cc(-c2ccccc2)ccc1O (stereo not shown) [1-[2-Hydroxy-4-(4-hydroxybiphenyl-3-yl)-4-methyl-2-trifluoromethylpentyl]-1H-quinolin-4-one], the “activity in the GR binding assay” value is reported as “potent activity”.
With COc1ccc(-c2ccccc2)cc1C(C)(C)CC(O)(Cn1ccc(=O)c2ccccc21)C(F)(F)F (stereo not shown) [1-[2-Hydroxy-4-(4-methoxybiphenyl-3-yl)-4-methyl-2-trifluoromethylpentyl]-1H-quinolin-4-one] the “activity in the GR binding assay” value was “potent activity”.
With COc1ccc(CO)cc1C(C)(C)CC(O)(Cn1ccc(=O)c2ccccc21)C(F)(F)F (stereo not shown) [1-[2-Hydroxy-4-(5-hydroxymethyl-2-methoxyphenyl)-4-methyl-2-trifluoromethylpentyl]-1H-quinolin-4-one] the “activity in the GR binding assay” value was “potent activity”.
C[S+]([O-])c1cc2c(c(C(C)(C)CC(O)(Cn3ccc(=O)c4ccccc43)C(F)(F)F)c1)OCC2 (stereo not shown) [1-[2-Hydroxy-4-(5-methanesulfinyl-2,3-dihydrobenzofuran-7-yl)-4-methyl-2-trifluoromethylpentyl]-1H-quinolin-4-one] was tested, and the “activity in the GR binding assay” value was “potent activity”.
In the case of CC(C)(CC(O)(Cn1ccc(=O)c2ncccc21)C(F)(F)F)c1cc(S(C)(=O)=O)cc2c1OCC2 (stereo not shown) [1-[2-Hydroxy-4-(5-methanesulfonyl-2,3-dihydrobenzofuran-7-yl)-4-methyl-2-trifluoromethylpentyl]-1H-[1,5]naphthyridin-4-one], the “activity in the GR binding assay” value is reported as “potent activity”.
With Cc1cn(CC(O)(CC(C)(C)c2cc(S(C)(=O)=O)cc3c2OCC3)C(F)(F)F)c2ccccc2c1=O (stereo not shown) [1-[2-Hydroxy-4-(5-methanesulfonyl-2,3-dihydrobenzofuran-7-yl)-4-methyl-2-trifluoromethylpentyl]-3-methyl-1H-quinolin-4-one] the “activity in the GR binding assay” value was “potent activity”.
In the case of CSc1cc2c(c(C(C)(C)CC(O)(Cn3ccc(=O)c4ccccc43)C(F)(F)F)c1)OCC2 (stereo not shown) [1-[2-Hydroxy-4-methyl-4-(5-methylsulfanyl-2,3-dihydrobenzofuran-7-yl)-2-trifluoromethylpentyl]-1H-quinolin-4-one], the “activity in the GR binding assay” value is reported as “potent activity”.
For CC1(CC(O)(Cn2ccc(=O)c3ccccc32)C(F)(F)F)CCOc2ccc(F)cc21 (stereo not shown) [1-[3,3,3-Trifluoro-2-(6-fluoro-4-methylchroman-4-ylmethyl)-2-hydroxypropyl]-1H-quinolin-4-one], the “activity in the GR binding assay” value was “potent activity”.
Cc1cn(CC(O)(CC(C)(C)c2cccc3c2OCC3)C(F)(F)F)c(CO)c(C)c1=O (stereo not shown) [1-[4-(2,3-Dihydrobenzofuran-7-yl)-2-hydroxy-4-methyl-2-trifluoromethylpentyl]-2-hydroxymethyl-3,5-dimethyl-1H-pyridin-4-one] was tested, and the “activity in the GR binding assay” value was “potent activity”.
With Cc1cn(CC(O)(CC(C)(C)c2cccc3c2OCC3)C(F)(F)F)c2ccccc2c1=O (stereo not shown) [1-[4-(2,3-Dihydrobenzofuran-7-yl)-2-hydroxy-4-methyl-2-trifluoromethylpentyl]-3-methyl-1H-quinolin-4-one] the “activity in the GR binding assay” value was “potent activity”.
CCOc1ccc(F)cc1C(C)(C)CC(O)(Cn1ccc(=O)c2ccccc21)C(F)(F)F (stereo not shown) [1-[4-(2-Ethoxy-5-fluorophenyl)-2-hydroxy-4-methyl-2-trifluoromethylpentyl]-1H-quinolin-4-one] was tested, and the “activity in the GR binding assay” value was “potent activity”.
CC(=O)c1cccc(C(C)(C)CC(O)(Cn2ccc(=O)c3ccccc32)C(F)(F)F)c1 (stereo not shown) [1-[4-(3-Acetylphenyl)-2-hydroxy-4-methyl-2-trifluoromethylpentyl]-1H-quinolin-4-one] was tested, and the “activity in the GR binding assay” value was “potent activity”.
In the case of CC(C)(CC(O)(Cn1ccc(=O)c2ccccc21)C(F)(F)F)c1cccc(Br)c1 (stereo not shown) [1-[4-(3-Bromophenyl)-2-hydroxy-4-methyl-2-trifluoromethylpentyl]-1H-quinolin-4-one], the “activity in the GR binding assay” value is reported as “potent activity”.
In the case of CC(C)(CC(O)(Cn1ccc(=O)c2ccccc21)C(F)(F)F)c1ccc(O)c(F)c1 (stereo not shown) [1-[4-(3-Fluoro-4-hydroxyphenyl)-2-hydroxy-4-methyl-2-trifluoromethylpentyl]-1H-quinolin-4-one], the “activity in the GR binding assay” value is reported as “potent activity”.
With COc1ccc(C(C)(C)CC(O)(Cn2ccc(=O)c3ccccc32)C(F)(F)F)cc1F (stereo not shown) [1-[4-(3-Fluoro-4-methoxyphenyl)-2-hydroxy-4-methyl-2-trifluoromethylpentyl]-1H-quinolin-4-one] the “activity in the GR binding assay” value was “potent activity”.
For Cc1ccc(C(C)(C)CC(O)(Cn2ccc(=O)c3ccccc32)C(F)(F)F)cc1F (stereo not shown) [1-[4-(3-Fluoro-4-methylphenyl)-2-hydroxy-4-methyl-2-trifluoromethylpentyl]-1H-quinolin-4-one], the “activity in the GR binding assay” value was “potent activity”.
